Measured values published in patent publication US20250346605A1, “NEW DERIVATIVES FOR TREATING TRPM3 MEDIATED DISORDERS” (Katholieke Universiteit Leuven, priority 2022, published 2025).
pIC50: −log10 of the molar value.

The compounds below were run against T1, mouse TRPM3α2 (mTRPM3) ion channel (Mus musculus, UniProt J9SQF3) (assay: TRPM3 ion channel driven Ca2+ uptake (Fluo-4 AM assay), PS-stimulated overexpressing HEK293 cells). Conditions: flip-in HEK293 overexpressing TRPM3, stimulated with Pregnenolone sulfate (PS) 50 μM, activity ranges A, B, C.
T1 construct: expressed in transfected cells; host or cells: Flp-In HEK293
T1 sequence (J9SQF3 1-1709 isoform J9SQF3-12): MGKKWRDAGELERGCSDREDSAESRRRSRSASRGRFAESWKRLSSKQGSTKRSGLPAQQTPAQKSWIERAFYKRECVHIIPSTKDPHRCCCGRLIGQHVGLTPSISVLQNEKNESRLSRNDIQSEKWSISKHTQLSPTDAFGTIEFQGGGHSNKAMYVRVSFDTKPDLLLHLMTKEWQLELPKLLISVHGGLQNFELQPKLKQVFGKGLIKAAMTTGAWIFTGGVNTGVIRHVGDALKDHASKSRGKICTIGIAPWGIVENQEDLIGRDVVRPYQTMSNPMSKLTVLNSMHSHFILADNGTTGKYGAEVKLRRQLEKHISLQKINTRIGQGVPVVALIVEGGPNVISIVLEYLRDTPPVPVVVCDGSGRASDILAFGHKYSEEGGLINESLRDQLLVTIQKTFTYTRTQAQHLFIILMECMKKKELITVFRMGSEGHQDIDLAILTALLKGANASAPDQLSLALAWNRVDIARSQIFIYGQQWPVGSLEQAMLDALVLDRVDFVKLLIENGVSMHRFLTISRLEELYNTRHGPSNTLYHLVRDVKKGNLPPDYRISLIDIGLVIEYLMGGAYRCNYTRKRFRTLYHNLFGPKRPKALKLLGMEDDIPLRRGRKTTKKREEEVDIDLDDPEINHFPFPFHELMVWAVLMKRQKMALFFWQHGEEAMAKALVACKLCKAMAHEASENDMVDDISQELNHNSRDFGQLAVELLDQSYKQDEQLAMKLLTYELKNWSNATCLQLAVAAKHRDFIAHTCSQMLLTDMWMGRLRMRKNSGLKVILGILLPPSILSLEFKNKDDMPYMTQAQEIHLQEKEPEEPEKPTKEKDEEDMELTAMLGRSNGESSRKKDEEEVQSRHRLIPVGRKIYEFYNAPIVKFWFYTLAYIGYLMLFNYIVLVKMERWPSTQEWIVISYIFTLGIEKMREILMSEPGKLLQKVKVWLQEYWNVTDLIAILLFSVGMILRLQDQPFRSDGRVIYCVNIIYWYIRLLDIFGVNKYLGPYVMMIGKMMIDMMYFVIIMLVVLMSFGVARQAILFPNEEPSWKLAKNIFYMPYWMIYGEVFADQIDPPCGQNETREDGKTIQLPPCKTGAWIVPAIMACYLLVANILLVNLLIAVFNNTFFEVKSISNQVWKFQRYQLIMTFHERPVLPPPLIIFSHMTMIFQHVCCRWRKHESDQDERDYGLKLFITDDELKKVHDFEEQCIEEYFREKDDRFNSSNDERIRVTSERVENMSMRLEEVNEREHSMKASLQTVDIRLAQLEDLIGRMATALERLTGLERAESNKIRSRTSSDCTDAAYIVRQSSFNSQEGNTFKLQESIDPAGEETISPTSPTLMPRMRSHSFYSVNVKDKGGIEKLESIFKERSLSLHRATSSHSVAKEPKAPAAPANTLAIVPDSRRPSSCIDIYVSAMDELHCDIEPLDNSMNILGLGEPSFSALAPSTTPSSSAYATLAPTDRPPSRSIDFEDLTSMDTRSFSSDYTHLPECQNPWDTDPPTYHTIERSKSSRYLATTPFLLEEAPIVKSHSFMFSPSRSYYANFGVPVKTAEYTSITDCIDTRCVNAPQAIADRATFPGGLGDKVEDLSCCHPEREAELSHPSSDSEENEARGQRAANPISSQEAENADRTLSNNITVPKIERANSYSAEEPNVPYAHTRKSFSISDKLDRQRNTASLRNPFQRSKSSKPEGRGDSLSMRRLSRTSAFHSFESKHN
Format: cell-based
Procedure: In order to monitor the inhibition of the mouse TRPM3α2 (mTRPM3) ion channel by the compounds of the invention, a cellular system making use of an mTRPM3alpha2 or hTRPM3 overexpressing cell line (flip-in HEK293) was used. The TRPM3 channel was stimulated/opened with Pregnenolone sulfate (PS) (50 μM) which results in Ca^2+ influx.
For mTRPM3, the intracellular Ca^2+ was measured with a Calcium responsive dye, Fluor-4 AMV ester (Invitrogen). Cells were cultured until a confluence of 80-90%, washed with Versene (Invitrogen) and detached from the surface by a short incubation with 0.05% Trypsin (Invitrogen). The trypsination process was stopped by the addition of complete cell culture medium (DMEM, glutamax, 10% FCS, NEAA, Pen-Strep). Cells were collected and resuspended in Krebs buffer without Calcium at RT.
Prior the cell seeding (±2000 cells/well into a black, 384 well plate (Greiner)) the diluted compound was added in the assay plate, together with the PS dissolved in Krebs buffer containing Calcium. […] Directly after cell addition the plates were read on an Envision fluorescence reader (Perkin Elmer) by an Excitation of 485 nm and emission at 535 nm.
Channel inhibition was calculated compared to a non-PS stimulated control versus a condition stimulated with PS (50 μM) with vehicle. The ability of the compounds of the invention to inhibit this activity was determined as: Percentage inhibition=[1-((RFU determined for sample with test compound present−RFU determined for sample with positive control inhibitor) divided by (RFU determined in the presence of vehicle−RFU determined for sample with positive control inhibitor))]*100.
The activities of the Example compounds tested are depicted in the table below. The activity ranges A, B and C refer to IC50 values in the Fluo-4 AM assay as follows: “A”: IC50<1 μM; “B”: 1 μM≤IC50≤20 μM and “C”: IC50>20 μM
In the case of `Cc1ncsc1COc1cc2c(C(=O)NC(C)C(N)=O)c(C)oc2cn1` (single isomer, unassigned) [Cpd 005-En1, 2-({2-methyl-5-[(4-methyl-1,3-thiazol-5-yl)methoxy]furo[2,3-c]pyridin-3-yl}formamido)propanamide], the pIC50 was 4.70 to 6.00. For `Cc1ncsc1COc1cc2c(C(=O)NC(C)C(N)=O)c(C)oc2cn1` (single isomer, unassigned) [Cpd 005-En2, 2-({2-methyl-5-[(4-methyl-1,3-thiazol-5-yl)methoxy]furo[2,3-c]pyridin-3-yl}formamido)propanamide], the pIC50 was under 4.70. `Cc1oc2cnc(OCc3ccccn3)cc2c1C(=O)NC(C)C(N)=O` (single isomer, unassigned) [Cpd 006 _ En1, 2-({2-methyl-5-[(pyridin-2-yl)methoxy]furo[2,3-c]pyridin-3-yl}formamido)propanamide] showed a pIC50 of 4.70 to 6.00. Compound `Cc1oc2cnc(OCc3ccccn3)cc2c1C(=O)NC(C)C(N)=O` (single isomer, unassigned) [Cpd 006 _ En2, 2-({2-methyl-5-[(pyridin-2-yl)methoxy]furo[2,3-c]pyridin-3-yl}formamido)propanamide] has a pIC50 of 4.70 to 6.00. Compound `Cc1oc2cnc(OCc3ccccc3F)cc2c1C(=O)NC(CO)C(N)=O` (single isomer, unassigned) [Cpd 008-En1, 2-({5-[(2-fluorophenyl)methoxy]-2-methylfuro[2,3-c]pyridin-3-yl}formamido)-3-hydroxypropanamide] has a pIC50 of 4.70 to 6.00. `Cc1oc2cnc(OCc3ccccc3F)cc2c1C(=O)NC(CO)C(N)=O` (single isomer, unassigned) [Cpd 008-En2, 2-({5-[(2-fluorophenyl)methoxy]-2-methylfuro[2,3-c]pyridin-3-yl}formamido)-3-hydroxypropanamide] gave a pIC50 of over 6.00. With `Cc1oc2cnc(OCc3ccccc3F)cc2c1C(=O)NC(C)C(N)=O` (single isomer, unassigned) [Cpd 009-En1, 2-({5-[(2-fluorophenyl)methoxy]-2-methylfuro[2,3-c]pyridin-3-yl}formamido)propanamide] the pIC50 was 4.70 to 6.00. In the case of `Cc1oc2cnc(OCc3ccccc3F)cc2c1C(=O)NC(C)C(N)=O` (single isomer, unassigned) [Cpd 009-En2, 2-({5-[(2-fluorophenyl)methoxy]-2-methylfuro[2,3-c]pyridin-3-yl}formamido)propanamide], the pIC50 was 4.70 to 6.00. For `Cc1ncsc1COc1cc2c(C(=O)NC(CO)C(N)=O)c(C)oc2cn1` (single isomer, unassigned) [Cpd 013-En1, 3-hydroxy-2-({2-methyl-5-[(4-methyl-1,3-thiazol-5-yl)methoxy]furo[2,3-c]pyridin-3-yl}formamido)propanamide], the pIC50 was under 4.70. In the case of `Cc1ncsc1COc1cc2c(C(=O)NC(CO)C(N)=O)c(C)oc2cn1` (single isomer, unassigned) [Cpd 013-En2, 3-hydroxy-2-({2-methyl-5-[(4-methyl-1,3-thiazol-5-yl)methoxy]furo[2,3-c]pyridin-3-yl}formamido)propanamide], the pIC50 was over 6.00. Compound `Cc1oc2cnc(OCc3ccccn3)cc2c1C(=O)NC(CO)C(N)=O` (single isomer, unassigned) [Cpd 014-En1, 3-hydroxy-2-({2-methyl-5-[(pyridin-2-yl)methoxy]furo[2,3-c]pyridin-3-yl}formamido)propanamide] has a pIC50 of 4.70 to 6.00. `Cc1oc2cnc(OCc3ccccn3)cc2c1C(=O)NC(CO)C(N)=O` (single isomer, unassigned) [Cpd 014-En2, 3-hydroxy-2-({2-methyl-5-[(pyridin-2-yl)methoxy]furo[2,3-c]pyridin-3-yl}formamido)propanamide] gave a pIC50 of over 6.00. `Cc1oc2cnc(OCc3ccccc3)cc2c1C(=O)NC1CNCC1(F)F` (single isomer, unassigned) [Cpd 015-En1, 5-(benzyloxy)-N-(4,4-difluoropyrrolidin-3-yl)-2-methylfuro[2,3-c]pyridine-3-carboxamide] showed a pIC50 of under 4.70. For `Cc1oc2cnc(OCc3ccccc3)cc2c1C(=O)NC1CNCC1(F)F` (single isomer, unassigned) [Cpd 015-En2, 5-(benzyloxy)-N-(4,4-difluoropyrrolidin-3-yl)-2-methylfuro[2,3-c]pyridine-3-carboxamide], the pIC50 was over 6.00. For `Cc1oc2cnc(OCc3ccccc3F)cc2c1C(=O)NC1CCN(CCO)C1=O` (single isomer, unassigned) [Cpd 017-En1, 5-[(2-fluorophenyl)methoxy]-N-[1-(2-hydroxyethyl)-2-oxopyrrolidin-3-yl]-2-methylfuro[2,3-c]pyridine-3-carboxamide], the pIC50 was 4.70 to 6.00. `Cc1oc2cnc(OCc3ccccc3F)cc2c1C(=O)NC1CCN(CCO)C1=O` (single isomer, unassigned) [Cpd 017-En2, 5-[(2-fluorophenyl)methoxy]-N-[1-(2-hydroxyethyl)-2-oxopyrrolidin-3-yl]-2-methylfuro[2,3-c]pyridine-3-carboxamide] showed a pIC50 of 4.70 to 6.00. `Cc1ncsc1COc1cc2c(C(=O)NC3CNCC3(F)F)c(C)oc2cn1` (single isomer, unassigned) [Cpd 021-En1, N-(4,4-difluoropyrrolidin-3-yl)-2-methyl-5-[(4-methyl-1,3-thiazol-5-yl)methoxy]furo[2,3-c]pyridine-3-carboxamide] gave a pIC50 of over 6.00. In the case of `Cc1ncsc1COc1cc2c(C(=O)NC3CNCC3(F)F)c(C)oc2cn1` (single isomer, unassigned) [Cpd 021-En2, N-(4,4-difluoropyrrolidin-3-yl)-2-methyl-5-[(4-methyl-1,3-thiazol-5-yl)methoxy]furo[2,3-c]pyridine-3-carboxamide], the pIC50 was under 4.70. `Cc1ncc(COc2cc3c(C(=O)N[C@@H](CO)C(N)=O)c(C)oc3cn2)s1` [Cpd 001, (2S)-3-hydroxy-2-({2-methyl-5-[(2-methyl-1,3-thiazol-5-yl)methoxy]furo[2,3-c]pyridin-3-yl}formamido)propanamide] was tested, and the pIC50 was 4.70 to 6.00. Compound `Cc1oc2cnc(OCc3ccccc3F)cc2c1C(=O)N[C@H](C(N)=O)[C@@H](C)O` [Cpd 002, (2S,3R)-2-({5-[(2-fluorophenyl)methoxy]-2-methylfuro[2,3-c]pyridin-3-yl}formamido)-3-hydroxybutanamide] has a pIC50 of over 6.00. `Cc1ncc(COc2cc3c(C(=O)N[C@H](C(N)=O)[C@@H](C)O)c(C)oc3cn2)s1` [Cpd 003, (2S,3R)-3-hydroxy-2-({2-methyl-5-[(2-methyl-1,3-thiazol-5-yl)methoxy]furo[2,3-c]pyridin-3-yl}formamido)butanamide] was tested, and the pIC50 was 4.70 to 6.00. For `Cc1ncsc1COc1cc2c(C(=O)N[C@H](C(N)=O)[C@@H](C)O)c(C)oc2cn1` [Cpd 004, (2S,3R)-3-hydroxy-2-({2-methyl-5-[(4-methyl-1,3-thiazol-5-yl)methoxy]furo[2,3-c]pyridin-3-yl}formamido)butanamide], the pIC50 was over 6.00. With `Cc1oc2cnc(OCc3ccccc3F)cc2c1C(=O)NC(C)(C)C(N)=O` [Cpd 007, 2-({5-[(2-fluorophenyl)methoxy]-2-methylfuro[2,3-c]pyridin-3-yl}formamido)-2-methylpropanamide] the pIC50 was 4.70 to 6.00. With `Cc1oc2cnc(OCc3ccccc3)cc2c1C(=O)NC(C)C(N)=O` (stereo not shown) [Cpd 010-Enl, 2-{[5-(benzyloxy)-2-methylfuro[2,3-c]pyridin-3-yl]formamido}propanamide] the pIC50 was 4.70 to 6.00. `Cc1ncsc1COc1cc2c(C(=O)NC(C)(C)C(N)=O)c(C)oc2cn1` [Cpd 011, 2-methyl-2-({2-methyl-5-[(4-methyl-1,3-thiazol-5-yl)methoxy]furo[2,3-c]pyridin-3-yl}formamido)propanamide] showed a pIC50 of 4.70 to 6.00. With `Cc1oc2cnc(OCc3ccccn3)cc2c1C(=O)NC(C)(C)C(N)=O` [Cpd 012, 2-methyl-2-({2-methyl-5-[(pyridin-2-yl)methoxy]furo[2,3-c]pyridin-3-yl}formamido)propanamide] the pIC50 was 4.70 to 6.00. In the case of `Cc1oc2cnc(OCc3ccccc3)cc2c1C(=O)NC1(CO)CCOCC1` [Cpd 016, 5-(benzyloxy)-N-[4-(hydroxymethyl)oxan-4-yl]-2-methylfuro[2,3-c]pyridine-3-carboxamide], the pIC50 was under 4.70. Work on `Cc1oc2cnc(OCc3ccccc3F)cc2c1C(=O)NC1(CO)CC1` [Cpd 018, 5-[(2-fluorophenyl)methoxy]-N-[1-(hydroxymethyl)cyclopropyl]-2-methylfuro[2,3-c]pyridine-3-carboxamide] yielded a pIC50 of 4.70 to 6.00. In the case of `Cc1ncsc1COc1cc2c(C(=O)NC3(C(N)=O)COC3)c(C)oc2cn1` [Cpd 019, N-(3-carbamoyloxetan-3-yl)-2-methyl-5-[(4-methyl-1,3-thiazol-5-yl)methoxy]furo[2,3-c]pyridine-3-carboxamide], the pIC50 was under 4.70. For `Cc1oc2cnc(OCc3ccccn3)cc2c1C(=O)NC1(C(N)=O)COC1` [Cpd 020, N-(3-carbamoyloxetan-3-yl)-2-methyl-5-[(pyridin-2-yl)methoxy]furo[2,3-c]pyridine-3-carboxamide], the pIC50 was 4.70 to 6.00. In the case of `Cc1oc2cnc(OCCc3ccccc3)cc2c1C(=O)NC1CNCC1(F)F` (stereo not shown) [Cpd 022-En1, N-(4,4-difluoropyrrolidin-3-yl)-2-methyl-5-(2-phenylethoxy)furo[2,3-c]pyridine-3-carboxamide], the pIC50 was 4.70 to 6.00.
